Read-outs that look alike come from different tables or passages of the source.
Tests used:
[1] = cited from earlier work; for Rate of dissolution in H2O at 25° C.: grade in words
[2] = Prakash et al., 2008, cited from earlier work
[3] = room temperature (25° C.); related art; cited from earlier work
[4] = Water solubility in RO water at room temperature (25° C.); format: physicochemical; conditions: g per 100 g solvent
Procedure: Hereinafter, unless specified otherwise, the solubility of material is determined in RO (reverse osmosis) water at room temperature (25° C.). Where the solubility is expressed as “%” it to be understood as number of grams of material soluble in 100 grams of solvent.
The material is deemed soluble at certain concentration if the produced solution has <10 FAU (Formazin Attenuation Unit) turbidity value.

SMILES | Rate of dissolution in H2O at 25° C. [1] | Rate of dissolution in H2O at 25° C. (% dissolved) ([1]; in 5 minutes) | further results
C=C1C[C@@]23CC[C@H]4[C@@](C)(CCC[C@@]4(C)C(=O)O[C@@H]4O[C@H](CO)[C@@H](O)[C@H](O)[C@H]4O)[C@@H]2CC[C@]1(O[C@@H]1O[C@H](CO)[C@@H](O)[C@H](O[C@@H]2O[C@H](CO)[C@@H](O)[C@H](O)[C@H]2O)[C@H]1O[C@@H]1O[C@H](CO)[C@@H](O)[C@H](O)[C@H]1O)C3 [Form 1, Rebaudioside A] | Very low | – | Rate of dissolution in H2O at 25° C. (% dissolved) ([1]; in 60 minutes): (<0.2% in 60; solubility (in words) ([2]; listed as hydrate form of Rebaudioside A): lowest solubility
C=C1C[C@@]23CC[C@H]4[C@@](C)(CCC[C@@]4(C)C(=O)O[C@@H]4O[C@H](CO)[C@@H](O)[C@H](O)[C@H]4O)[C@@H]2CC[C@]1(O[C@@H]1O[C@H](CO)[C@@H](O)[C@H](O[C@@H]2O[C@H](CO)[C@@H](O)[C@H](O)[C@H]2O)[C@H]1O[C@@H]1O[C@H](CO)[C@@H](O)[C@H](O)[C@H]1O)C3 [Form 2, Rebaudioside A] | Intermediate | (<30% in 5 | –
C=C1C[C@@]23CC[C@H]4[C@@](C)(CCC[C@@]4(C)C(=O)O[C@@H]4O[C@H](CO)[C@@H](O)[C@H](O)[C@H]4O)[C@@H]2CC[C@]1(O[C@@H]1O[C@H](CO)[C@@H](O)[C@H](O[C@@H]2O[C@H](CO)[C@@H](O)[C@H](O)[C@H]2O)[C@H]1O[C@@H]1O[C@H](CO)[C@@H](O)[C@H](O)[C@H]1O)C3 [Form 3, Rebaudioside A] | High | > 30% | –
C=C1C[C@@]23CC[C@H]4[C@@](C)(CCC[C@@]4(C)C(=O)O[C@@H]4O[C@H](CO)[C@@H](O)[C@H](O)[C@H]4O)[C@@H]2CC[C@]1(O[C@@H]1O[C@H](CO)[C@@H](O)[C@H](O[C@@H]2O[C@H](CO)[C@@H](O)[C@H](O)[C@H]2O)[C@H]1O[C@@H]1O[C@H](CO)[C@@H](O)[C@H](O)[C@H]1O)C3 [Form 4, Rebaudioside A] | High | > 35% | solubility (in words) ([2]; listed as rebaudioside A amorphous forms): high solubility
C=C1C[C@@]23CC[C@H]4[C@@](C)(CCC[C@@]4(C)C(=O)O[C@@H]4O[C@H](CO)[C@@H](O)[C@H](O)[C@H]4O[C@@H]4O[C@H](CO)[C@@H](O)[C@H](O)[C@H]4O)[C@@H]2CC[C@]1(O[C@@H]1O[C@H](CO)[C@@H](O)[C@H](O[C@@H]2O[C@H](CO)[C@@H](O)[C@H](O)[C@H]2O)[C@H]1O[C@@H]1O[C@H](CO)[C@@H](O)[C@H](O)[C@H]1O)C3 [Rebaudioside D] | – | – | water solubility [3]: less than 0.05%
C=C1C[C@@]23CC[C@H]4[C@@](C)(CCC[C@@]4(C)C(=O)O[C@@H]4O[C@H](CO)[C@@H](O)[C@H](O[C@@H]5O[C@H](CO)[C@@H](O)[C@H](O)[C@H]5O)[C@H]4O[C@@H]4O[C@H](CO)[C@@H](O)[C@H](O)[C@H]4O)[C@@H]2CC[C@]1(O[C@@H]1O[C@H](CO)[C@@H](O)[C@H](O[C@@H]2O[C@H](CO)[C@@H](O)[C@H](O)[C@H]2O)[C@H]1O[C@@H]1O[C@H](CO)[C@@H](O)[C@H](O)[C@H]1O)C3 [Rebaudioside M] | – | – | solubility in water ([4]; listed as Crystalline Rebaudioside M): 0%-0.1; water solubility [3]: about 0.1%
C=C1C[C@@]23CC[C@H]4[C@@](C)(CCC[C@@]4(C)C(=O)O[C@@H]4O[C@H](CO)[C@@H](O)[C@H](O[C@@H]5O[C@H](CO)[C@@H](O)[C@H](O)[C@H]5O)[C@H]4O[C@@H]4O[C@H](CO)[C@@H](O)[C@H](O)[C@H]4O)[C@@H]2CC[C@]1(O[C@@H]1O[C@H](CO)[C@@H](O)[C@H](O[C@@H]2O[C@H](CO)[C@@H](O)[C@H](O)[C@H]2O)[C@H]1O[C@@H]1O[C@H](CO)[C@@H](O)[C@H](O)[C@H]1O)C3 [rebaudioside M] | – | – | solubility in water [4]: 2%
